Results: ChEMBL document CHEMBL5032490, “Neuroactive Type-A γ-Aminobutyric Acid Receptor Allosteric Modulator Steroids from the Hypobranchial Gland of Marine Mollusk, Conus geographus” (J Med Chem, 2021)
The source made the active and inactive calls.

What was measured:
[1] = Induction of ATP and Kcl-induced increase in cytosolic Ca2+ ion concentration mouse […] assessed as neuron population at 10 uM measured after 1 hr by Fura2AM dye based fluorescence microscopic analysis; assay type: functional
[2] = tested on: Mus musculus; test: Antinociceptive activity in mouse assessed as total number of responses at 2 to 50 mg/kg, ip by Von Frey test; assay type: functional, organism-based; settings: dose 2-50 mg/kg
[3] = target: GABA A receptor alpha-4/beta-3/gamma-2 (Homo sapiens, UniProt P18507+P28472+P48169); test: Negative allosteric modulation activity at human GABAA alpha4beta3gamma2 stably expressed in HEK cells by patch clamp method; assay type: cell-based
Chain of GABA A receptor alpha-4/beta-3/gamma-2 (P48169 whole entry, one chain of several): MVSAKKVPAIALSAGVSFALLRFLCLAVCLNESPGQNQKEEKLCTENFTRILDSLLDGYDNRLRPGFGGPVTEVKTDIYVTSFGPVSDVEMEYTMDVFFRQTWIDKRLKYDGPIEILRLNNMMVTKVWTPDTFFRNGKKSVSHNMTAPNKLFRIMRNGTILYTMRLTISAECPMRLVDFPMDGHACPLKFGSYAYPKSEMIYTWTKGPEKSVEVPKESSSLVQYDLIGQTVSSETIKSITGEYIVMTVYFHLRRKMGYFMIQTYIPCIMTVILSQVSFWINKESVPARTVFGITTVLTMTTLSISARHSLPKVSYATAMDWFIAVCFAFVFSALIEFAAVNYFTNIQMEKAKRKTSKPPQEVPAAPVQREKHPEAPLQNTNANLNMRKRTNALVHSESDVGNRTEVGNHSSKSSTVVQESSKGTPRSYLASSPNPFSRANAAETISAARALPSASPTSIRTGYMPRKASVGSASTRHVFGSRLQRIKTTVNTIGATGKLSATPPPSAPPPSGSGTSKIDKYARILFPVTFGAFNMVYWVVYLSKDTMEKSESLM

[4] = Induction of ATP and Kcl-induced increase in cytosolic Ca2+ ion concentration mouse non-peptidergic nociceptive DRG neuron assessed as neuron population at 10 uM measured after 1 hr by Fura2AM dye based fluorescence microscopic analysis; assay type: functional
[5] = tested on: Neuron; test: Negative allosteric modulation of mouse GABA receptor in mouse C-low-threshold mechanoreceptive DRG neurons assessed as inhibition of KCl-induced response at 10 uM; assay type: tissue-based; settings: filed as negative allosteric modulator
[6] = target: T1, GABA-A receptor; alpha-2/beta-3/gamma-2 (Homo sapiens, UniProt P18507+P28472+P47869); test: Negative allosteric modulation activity at human GABAA alpha2beta3gamma2 stably expressed in HEK cells by whole cell patch clamp method; assay type: cell-based
T1 sequence (P18507 whole entry): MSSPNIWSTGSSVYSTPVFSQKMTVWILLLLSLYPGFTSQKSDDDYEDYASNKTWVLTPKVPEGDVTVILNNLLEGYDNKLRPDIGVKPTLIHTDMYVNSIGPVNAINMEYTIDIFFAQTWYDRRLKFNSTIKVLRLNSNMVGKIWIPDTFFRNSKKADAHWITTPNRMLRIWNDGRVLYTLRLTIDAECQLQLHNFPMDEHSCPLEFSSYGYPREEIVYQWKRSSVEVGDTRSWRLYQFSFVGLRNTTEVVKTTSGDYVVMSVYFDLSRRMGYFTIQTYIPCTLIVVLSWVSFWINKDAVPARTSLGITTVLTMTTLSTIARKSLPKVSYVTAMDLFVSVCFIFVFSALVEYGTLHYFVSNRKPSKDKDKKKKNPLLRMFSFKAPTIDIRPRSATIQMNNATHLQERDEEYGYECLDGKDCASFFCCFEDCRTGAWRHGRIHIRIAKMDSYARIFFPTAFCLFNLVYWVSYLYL
T1 sequence (P28472 whole entry): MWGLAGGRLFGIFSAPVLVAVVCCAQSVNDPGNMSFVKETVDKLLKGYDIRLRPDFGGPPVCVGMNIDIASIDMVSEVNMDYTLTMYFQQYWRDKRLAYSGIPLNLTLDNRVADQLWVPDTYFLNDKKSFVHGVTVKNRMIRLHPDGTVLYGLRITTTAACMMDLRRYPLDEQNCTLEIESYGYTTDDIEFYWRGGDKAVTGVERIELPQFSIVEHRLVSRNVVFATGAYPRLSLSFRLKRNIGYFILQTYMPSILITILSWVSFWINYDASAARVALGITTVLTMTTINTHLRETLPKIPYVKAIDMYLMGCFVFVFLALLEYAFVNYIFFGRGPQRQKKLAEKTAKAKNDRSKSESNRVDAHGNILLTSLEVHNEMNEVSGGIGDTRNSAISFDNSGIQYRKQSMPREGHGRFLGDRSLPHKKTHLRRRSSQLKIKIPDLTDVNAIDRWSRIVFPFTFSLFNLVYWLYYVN
T1 sequence (P47869 whole entry): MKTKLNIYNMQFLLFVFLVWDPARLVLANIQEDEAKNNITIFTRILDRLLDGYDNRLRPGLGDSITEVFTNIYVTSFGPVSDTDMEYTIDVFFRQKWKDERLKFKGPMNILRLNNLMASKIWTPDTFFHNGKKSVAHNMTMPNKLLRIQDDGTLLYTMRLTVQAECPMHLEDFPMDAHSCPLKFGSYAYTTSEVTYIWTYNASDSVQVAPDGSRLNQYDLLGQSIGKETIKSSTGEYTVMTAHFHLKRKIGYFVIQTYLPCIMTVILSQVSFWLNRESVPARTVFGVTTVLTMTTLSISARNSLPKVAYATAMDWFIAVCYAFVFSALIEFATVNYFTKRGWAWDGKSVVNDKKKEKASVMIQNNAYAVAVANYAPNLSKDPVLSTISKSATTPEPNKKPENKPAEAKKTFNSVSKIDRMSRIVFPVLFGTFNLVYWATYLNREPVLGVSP

[7] = Reduction of ATP and Kcl-induced increase in cytosolic Ca2+ ion concentration mouse DRG other neuron subtype assessed as neuron population at 10 uM measured after 1 hr by Fura2AM dye based fluorescence microscopic analysis; assay type: functional; design: scale not given: the % may be the effect or the level left
[8] = tested on: Neuron; test: Negative allosteric modulation of human GABA receptor expressed in mouse DRG neurons assessed as inhibition of 340 nM GABA-induced responses at 0.5 uM using c-LTMRS; assay type: tissue-based; settings: filed as negative allosteric modulator
[9] = Induction of ATP and Kcl-induced increase in cytosolic Ca2+ ion concentration mouse peptidergic nociceptive DRG neuron assessed as neuron population at 10 uM measured after 1 hr by Fura2AM dye based fluorescence microscopic analysis; assay type: functional

## CC(C)CCC[C@@H](C)[C@H]1CC[C@H]2[C@@H]3C(=O)C=C4C=CCC[C@]4(C)[C@H]3CC[C@]12C
[1]
  Activity: 4%
[2]
  Activity: Active
[3]
  IC50: 1 µM
[4]
  Activity: 39%
[5]
  Activity: Active
[6]
  IC50: 15.7 µM
[7]
  Activity: 5%
[8]
  Activity: Active
[9]
  Activity: 56%
